According to US9994587B2, “HIV protease inhibitors” (priority 2014, dated 2018):
pIC50: −log10 of the molar value.

Target: T1, wildtype HIV-1 protease (Human immunodeficiency virus type 1 group M subtype B, UniProt P04585)
T1 construct: preincubated with the HIV-1 protease (wild type) enzyme in assay buffer; made in house; host or cells: Escherichia coli
Test: Assay for inhibition of microbial expressed HIV protease (Pepcleav)
Assay type: biochemical
Conditions: wild type HIV-1 protease 20 pM, peptide substrate 400 micromolar, pH 5.5; mean of at least two independent experiments
How it was run: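 E. coli-expressed enzyme preincubated with inhibitor 30 min at room temperature in 50 mM sodium acetate pH 5.5, 100 mM NaCl, 0.1% BSA, then 400 micromolar peptide substrate added with 20 picomolar protease (final), 1 h at 30° C. Product quantified by LC-MS/MS peak area after formic acid/indinavir quench.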

SMILES	pIC50
COC(=O)N[C@H](C(=O)Nc1ccccc1CC[C@@H]1CNC[C@@H](CCc2ccc(C#N)cc2)O1)C(c1ccccc1)c1ccccc1 [Example 63, N-[2-(2-{(2R,6R)-6-[2-(4-cyanophenyl)ethyl]morpholin-2-yl}ethyl)phenyl]-N-α-(methoxycarbonyl)-β-phenyl-L-phenylalaninamide]	8.06
COC(=O)N[C@H](C(=O)Nc1ccccc1CC[C@@H]1CNC[C@@H](COc2ccc(Br)cc2N)O1)C(c1ccccc1)c1ccccc1 [Example 13, methyl N-[(1S)-1-[[2-[2-[(2R,6S)-6-[(2-amino-4-bromo-phenoxy)methyl]morpholin-2-yl]ethyl]phenyl]carbamoyl]-2,2-diphenyl-ethyl]carbamate]	7.68
COC(=O)N[C@H](C(=O)Nc1ccccc1CC[C@@H]1CNC[C@@H](COc2cccnc2C)O1)C(c1ccccc1)c1ccccc1 [Example 50, N-α-(methoxycarbonyl)-N-(2-{2-[(2R,6S)-6-{[(2-methylpyridin-3-yl)oxy]methyl}morpholin-2-yl]ethyl}phenyl)-β-phenyl-L-phenylalaninamide]	6.89
COC(=O)N[C@H](C(=O)Nc1cc(F)cnc1CC[C@@H]1CNC[C@@H](COc2ccc(C#N)cc2)O1)C(c1ccccc1)c1ccccc1 [Example 78, N-[2-(2-{(2R,6S)-6-[(4-cyanophenoxy)methyl]morpholin-2-yl}ethyl)-5-fluoropyridin-3-yl]-Nα-(methoxycarbonyl)-β-phenyl-L-phenylalaninamide]	6.82
COC(=O)N[C@H](C(=O)Nc1nccnc1CC[C@@H]1CNC[C@@H](CSc2ccc(Cl)cc2)O1)C(c1ccccc1)c1ccccc1 [Example 83, methyl N-[(1S)-1-benzhydryl-2-[[3-[2-[(2R,6S)-6-[(4-chlorophenyl)sulfanylmethyl]morpholin-2-yl]ethyl]pyrazin-2-yl]amino]-2-oxo-ethyl]carbamate]	7.57
COC(=O)N[C@H](C(=O)Nc1ccccc1CC[C@@H]1CNC[C@@H](COc2ccc3cn[nH]c3c2)O1)C(c1ccccc1)c1ccccc1 [Example 45, N-[2-(2-{(2R,6S)-6-[(1H-indazol-6-yloxy)methyl]morpholin-2-yl}ethyl)phenyl]-Nα-(methoxycarbonyl)-β-phenyl-L-phenylalaninamide]	7.96
COC(=O)N[C@H](C(=O)Nc1ccccc1CC[C@@H]1CNC[C@@H](CSc2nnc(Cn3nccc3C)o2)O1)C(c1ccccc1)c1ccccc1 [Example 33, methyl N-[(1S)-1-benzhydryl-2-[[2-[2-[(2R,6S)-6-[[5-[(5-methylpyrazol-1-yl)methyl]-1,3,4-oxadiazol-2-yl]sulfanylmethyl]morpholin-2-yl]ethyl]phenyl]amino]-2-oxo-ethyl]carbamate]	9.17
COC(=O)N[C@H](C(=O)Nc1ccccc1CC[C@@H]1CNC[C@@H](CSc2ccc(Cl)c(Cl)c2)O1)C(c1ccccc1)c1ccccc1 [Example 19, methyl N-[(1S)-1-benzhydryl-2-[[2-[2-[(2R,6S)-6-[(3,4-dichlorophenyl)sulfanylmethyl]morpholin-2-yl]ethyl]phenyl]amino]-2-oxo-ethyl]carbamate]	8.06
COC(=O)N[C@H](C(=O)Nc1ccccc1CC[C@@H]1CNC[C@@H](COc2cccc3ncccc23)O1)C(c1ccccc1)c1ccccc1 [Example 51, methyl [(2S)-1-oxo-3,3-diphenyl-1-{[2-[2-{(2R,6S)-6-[(quinolin-5-yloxy)methyl]morpholin-2-yl}ethyl)phenyl]amino}propan-2-yl]carbamate]	7.85
COC(=O)N[C@H](C(=O)Nc1ccccc1CC[C@@H]1CNC[C@@H](COCc2ccc(Cl)cc2)O1)C(c1ccccc1)c1ccccc1 [Example 59, methyl N-[(1S)-1-benzhydryl-2-[[2-[2-[(2R,6S)-6-[(4-chlorophenyl)methoxymethyl]morpholin-2-yl]ethyl]phenyl]amino]-2-oxo-ethyl]carbamate]	7.21
N[C@H](C(=O)Nc1cccc(F)c1CC[C@@H]1CNC[C@@H](CSc2ccc(Cl)cc2)O1)C(c1ccc(F)cc1)c1ccc(F)cc1 [Example 121, N-(2-{2-[(2R,6S)-6-{[(4-chlorophenyl)sulfanyl]methyl}morpholin-2-yl]ethyl}-3-fluorophenyl)-4-fluoro-β-(4-fluorophenyl)-L-phenylalaninamide]	8.28
COC(=O)N[C@H](C(=O)Nc1ccccc1CC[C@@H]1CNC[C@@H](COc2ccc3c(c2)NCCC3)O1)C(c1ccccc1)c1ccccc1 [Example 53, methyl [(2S)-1-oxo-3,3-diphenyl-1-{[2-(2-{(2R,6S)-6-[(1,2,3,4-tetrahydroquinolin-7-yloxy)methyl]morpholin-2-yl}ethyl)phenyl]amino}propan-2-yl]carbamate]	7.89
O=C(Nc1c(CC[C@@H]2CNC[C@@H](CSc3ccc(Cl)cc3)O2)cc[nH]c1=O)[C@@H](NCC(F)(F)F)C(c1ccccc1)c1ccccc1 [Example 89, N-(4-{2-[(2R,6S)-6-{[(4-chlorophenyl)sulfanyl]methyl}morpholin-2-yl]ethyl}-2-oxo-1,2-dihydropyridin-3-yl)-β-phenyl-Nα-(2,2,2-trifluoroethyl)-L-phenylalaninamide]	7.91
COC(=O)N[C@H](C(=O)Nc1ccccc1CC[C@@H]1CNC[C@@H](CSc2ccc(Cl)cc2)O1)[C@@H](c1ccccc1)c1ccnc2ccccc12 [Example 68, methyl[(2S,3S)-1-[(2-{2-[(2R,6S)-6-{[(4-chlorophenyl)sulfanyl]methyl}morpholin-2-yl]ethyl}phenyl)amino]-1-oxo-3-phenyl-3-(quinolin-4-yl)propan-2-yl]carbamate]	10.52
COC(=O)N[C@H](C(=O)Nc1ncccc1CC[C@@H]1CNC[C@@H](COc2ccc(C#N)cc2)O1)C(c1ccccc1)c1ccccc1 [Example 85, N-[3-(2-{(2R,6S)-6-[(4-cyanophenoxy)methyl]morpholin-2-yl}ethyl)pyridin-2-yl]-Nα-(methoxycarbonyl)-β-phenyl-L-phenylalaninamide]	7.06
COC(=O)N[C@H](C(=O)Nc1ccccc1CC[C@@H]1CNC[C@@H](COc2ccc(-c3ccccc3)cc2)O1)C(c1ccccc1)c1ccccc1 [Example 11, methyl N-[(1S)-1-benzhydryl-2-oxo-2-[[2-[2-[(2R,6S)-6-[(4-phenylphenoxy)methyl]morpholin-2-yl]ethyl]phenyl]amino]ethyl] carbamate]	8.18
COC(=O)N[C@H](C(=O)Nc1ccccc1CC[C@@H]1CNC[C@@H](C(F)(F)Cc2ccc(Br)cc2)O1)C(c1ccccc1)c1ccccc1 [Example 65, N-[2-(2-{(2R,6S)-6-[2-(4-bromophenyl)-1,1-difluoroethyl]morpholin-2-yl}ethyl)phenyl]-Nα-(methoxycarbonyl)-β-phenyl-L-phenylalaninamide]	7.30
COC(=O)N[C@H](C(=O)Nc1ccccc1CC[C@@H]1CNC[C@@H](CSc2nnc(-c3ccncc3)o2)O1)C(c1ccccc1)c1ccccc1 [Example 34, methyl N-[(1S)-1-benzhydryl-2-oxo-2-[[2-[2-[(2R,6S)-6-[[5-(4-pyridyl)-1,3,4-oxadiazol-2-yl]sulfanylmethyl]morpholin-2-yl]ethyl]phenyl]amino]ethyl] carbamate]	9.38
COC(=O)N[C@H](C(=O)Nc1cccnc1CC[C@@H]1CNC[C@@H](CSc2ncccc2Cl)O1)C(c1ccccc1)c1ccccc1 [Example 80, N-(2-{2-[(2R,6S)-6-{[(3-chloropyridin-2-yl)sulfanyl]methyl}morpholin-2-yl]ethyl}pyridin-3-yl)-Nα-(methoxycarbonyl)-β-phenyl-L-phenylalaninamide]	7.24
